For 47 compounds, inhibition results are on record in patent publication US20130303535A1, “NOVEL BICYCLIC HETEROCYCLIC COMPOUND” (priority 2008, published 2013).

For the experiment, the target named is TTX resistant Na channel of human SNS-expressing cell (SNS) (Homo sapiens, UniProt Q9Y5Y9). The experiment in a line: cell-based. Conditions: CHO-K1, compound concentration 12.5 μM; read-out: SNS inhibitory rate (%).
Chain of TTX resistant Na channel of human SNS-expressing cell (SNS) (Q9Y5Y9 whole entry, looked up): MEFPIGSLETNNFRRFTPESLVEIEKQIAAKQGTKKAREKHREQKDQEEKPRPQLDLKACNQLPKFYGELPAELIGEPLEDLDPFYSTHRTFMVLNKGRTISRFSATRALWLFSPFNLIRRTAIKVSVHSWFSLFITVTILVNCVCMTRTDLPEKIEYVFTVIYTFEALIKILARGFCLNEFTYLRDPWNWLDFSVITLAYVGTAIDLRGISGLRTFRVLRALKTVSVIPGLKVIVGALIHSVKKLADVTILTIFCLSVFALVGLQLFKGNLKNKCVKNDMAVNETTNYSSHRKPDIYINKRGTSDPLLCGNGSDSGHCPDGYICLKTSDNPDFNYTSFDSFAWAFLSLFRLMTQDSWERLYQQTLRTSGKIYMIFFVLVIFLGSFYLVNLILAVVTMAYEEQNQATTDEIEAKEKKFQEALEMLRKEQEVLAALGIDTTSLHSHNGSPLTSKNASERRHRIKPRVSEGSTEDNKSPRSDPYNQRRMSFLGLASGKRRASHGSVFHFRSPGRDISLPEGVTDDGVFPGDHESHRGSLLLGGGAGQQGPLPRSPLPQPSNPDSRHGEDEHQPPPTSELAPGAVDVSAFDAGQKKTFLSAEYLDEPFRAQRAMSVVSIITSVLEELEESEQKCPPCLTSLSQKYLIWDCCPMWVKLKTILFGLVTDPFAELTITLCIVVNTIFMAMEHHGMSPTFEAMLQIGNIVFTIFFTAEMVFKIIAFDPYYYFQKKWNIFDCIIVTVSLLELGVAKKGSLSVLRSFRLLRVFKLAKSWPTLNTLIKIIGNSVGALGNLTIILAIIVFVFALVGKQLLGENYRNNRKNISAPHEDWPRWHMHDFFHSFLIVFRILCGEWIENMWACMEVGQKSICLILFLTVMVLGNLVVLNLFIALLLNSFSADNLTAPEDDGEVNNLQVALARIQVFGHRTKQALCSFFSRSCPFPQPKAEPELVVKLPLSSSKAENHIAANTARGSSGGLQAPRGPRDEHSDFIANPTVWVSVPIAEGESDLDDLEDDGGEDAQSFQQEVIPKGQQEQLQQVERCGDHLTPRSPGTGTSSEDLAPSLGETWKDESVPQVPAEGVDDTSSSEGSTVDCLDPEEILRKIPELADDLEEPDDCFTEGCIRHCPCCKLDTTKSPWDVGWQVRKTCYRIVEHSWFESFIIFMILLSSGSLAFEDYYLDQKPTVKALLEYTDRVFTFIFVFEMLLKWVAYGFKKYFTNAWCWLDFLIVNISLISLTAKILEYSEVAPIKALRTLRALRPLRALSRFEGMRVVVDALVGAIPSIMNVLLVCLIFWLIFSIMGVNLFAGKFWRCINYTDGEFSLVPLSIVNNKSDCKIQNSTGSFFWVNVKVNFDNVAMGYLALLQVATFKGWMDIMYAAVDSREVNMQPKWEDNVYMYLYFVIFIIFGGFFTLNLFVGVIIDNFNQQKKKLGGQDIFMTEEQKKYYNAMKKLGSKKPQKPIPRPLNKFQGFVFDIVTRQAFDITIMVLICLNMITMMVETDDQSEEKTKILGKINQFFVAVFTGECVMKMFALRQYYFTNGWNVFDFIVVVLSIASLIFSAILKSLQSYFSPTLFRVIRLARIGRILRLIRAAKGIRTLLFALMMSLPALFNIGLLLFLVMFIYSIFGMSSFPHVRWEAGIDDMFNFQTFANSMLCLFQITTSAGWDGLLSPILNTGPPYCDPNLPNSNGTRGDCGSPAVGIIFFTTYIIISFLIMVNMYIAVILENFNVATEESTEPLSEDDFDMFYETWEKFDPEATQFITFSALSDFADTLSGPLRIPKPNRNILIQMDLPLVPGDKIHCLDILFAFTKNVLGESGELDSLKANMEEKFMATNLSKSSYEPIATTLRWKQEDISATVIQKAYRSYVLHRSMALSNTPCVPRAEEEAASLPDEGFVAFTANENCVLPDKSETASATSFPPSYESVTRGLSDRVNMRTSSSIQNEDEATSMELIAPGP
Turning to `CCOCCn1c(CN[C@@H](C)C(N)=O)nc2ccc(-c3ccc(F)cc3)cc21` [Example 68], the inhibition at 12.5 µM was 16%. As for `CCOCCn1c(CN[C@@H](C)C(N)=O)nc2ccc(-c3ccccc3)cc21` [Example 69], the inhibition at 12.5 µM turned out to be 22.3%.

With `CCOCCn1c(CNCC(N)=O)nc2ccc(-c3ccccc3Cl)cc21` [Example 70], the inhibition at 12.5 µM was determined as 11.2%. For `CCOCCn1c(CN[C@@H](C)C(N)=O)nc2ccc(-c3ccccc3Cl)cc21` [Example 71], the inhibition at 12.5 µM came out at 73.7%.

For `CCOCCn1c(CNCC(N)=O)nc2ccc(-c3ccc(Cl)cc3)cc21` [Example 72], the inhibition at 12.5 µM was 7.3%.

For `CCOCCn1c(CN[C@@H](C)C(N)=O)nc2ccc(-c3ccc(Cl)cc3)cc21` [Example 73], the inhibition at 12.5 µM was found to be 8%.

For the compound `CCOCCn1c(CN[C@@H](C)C(N)=O)nc2ccc(Oc3ccc(C(C)(C)C)cc3)cc21` [Example 74, N^2-{[6-(4-tert-butylphenoxy)-1-(2-ethoxyethyl)-1H-benzimidazol-2-yl]methyl}-L-alaninamide], the inhibition at 12.5 µM was determined as 58.2%. `CCOCCn1c(CN[C@@H](C)C(N)=O)nc2ccc(Oc3ccc(OC)cc3)cc21` [Example 75, N^2-{[1-(2-ethoxyethyl)-6-(4-methoxyphenoxy)-1H-benzimidazol-2-yl]methyl}-L-alaninamide]: the inhibition at 12.5 µM is 0%. On to `CCOCCn1c(CN[C@@H](C)C(N)=O)nc2ccc(OCc3ccccc3)cc21` [Example 76, N^2-{[6-(benzyloxy)-1-(2-ethoxyethyl)-1H-benzimidazol-2-yl]methyl}-L-alaninamide], for which the inhibition at 12.5 µM worked out at 18.8%. Turning to `CCOCCn1c(CNC(C)(C)C(N)=O)nc2ccc(OCc3ccccc3)cc21` [Example 77, N^2-{[6-(benzyloxy)-1-(2-ethoxyethyl)-1H-benzimidazol-2-yl]methyl}-2-methylalaninamide], the inhibition at 12.5 µM turned out to be 16%. `CCOCCn1c(CN[C@@H](C)C(N)=O)nc2ccc(OCc3ccc(F)cc3)cc21` [Example 78, N^2-({1-(2-ethoxyethyl)-6-[(4-fluorobenzyl)oxy]-1H-benzimidazol-2-yl}methyl)-L-alaninamide]: the inhibition at 12.5 µM came to 22.2%. Turning to `CCOCCn1c(CN[C@@H](C)C(N)=O)nc2ccc(Oc3ccccc3)nc21` [Example 79, N^2-{[3-(2-ethoxyethyl)-5-phenoxy-3H-imidazo[4,5-b]pyridin-2-yl]methyl}-L-alaninamide], the inhibition at 12.5 µM came to 3.5%. Turning to `CCOCCn1c(CNCC(N)=O)nc2ccc(Oc3ccccc3)nc21` [Example 80, N^2-{[3-(2-ethoxyethyl)-5-phenoxy-3H-imidazo[4,5-b]pyridin-2-yl]methyl}glycinamide], the inhibition at 12.5 µM came out at 2.5%. For `CCOCCn1c(CN[C@@H](C)C(N)=O)nc2cc(F)c(Oc3ccc(F)cc3)cc21` [Example 81, N^2-{[1-(2-ethoxyethyl)-5-fluoro-6-(4-fluorophenoxy)-1H-benzimidazol-2-yl]methyl}-L-alaninamide] the value was 69.1%. Next, `C[C@H](NCc1nc2ccc(Oc3ccc(F)cc3)cc2n1C1CCN(C(=O)OC(C)(C)C)CC1)C(N)=O` [Example 82, tert-butyl 4-[2-({[(2S)-1-amino-1-oxopropan-2-yl]amino}methyl)-6-(4-fluorophenoxy)-1H-benzimidazol-1-yl]piperidine-1-carboxylate]: 30.7%; `C[C@H](NCc1nc2ccc(Oc3ccc(F)cc3)cc2n1C1CCNCC1)C(N)=O` [Example 83, N^2-{[6-(4-fluorophenoxy)-1-(piperidin-4-yl)-1H-benzimidazol-2-yl]methyl}-L-alaninamide]: 0%.

For the compound `CC(C)NC(=O)N1CCC(n2c(CN[C@@H](C)C(N)=O)nc3ccc(Oc4ccc(F)cc4)cc32)CC1` [Example 84, 4-[2-({[(2S)-1-amino-1-oxopropan-2-yl]amino}methyl)-6-(4-fluorophenoxy)-1H-benzimidazol-1-yl]-N-(propan-2-yl)piperidine-1-carboxamide], the inhibition at 12.5 µM was 76.8%. For `CC(=O)N1CCC(n2c(CN[C@@H](C)C(N)=O)nc3ccc(Oc4ccc(F)cc4)cc32)CC1` [Example 85, N^2-{[1-(1-acetylpiperidin-4-yl)-6-(4-fluorophenoxy)-1H-benzimidazol-2-yl]methyl}-L-alaninamide], the inhibition at 12.5 µM worked out at 24.9%. Next, `C[C@H](NCc1nc2ccc(Oc3ccc(F)cc3)cc2n1C1CCN(S(C)(=O)=O)CC1)C(N)=O` [Example 86, N^2-({6-(4-fluorophenoxy)-1-[1-(methylsulfonyl)piperidin-4-yl]-1H-benzimidazol-2-yl}methyl)-L-alaninamide]: 8.3%; `CCOCCn1c(CN[C@@H](C)C(=O)NCC(C)(C)O)nc2ccc(Oc3ccc(F)cc3)cc21` [Example 87, N^2-{[1-(2-ethoxyethyl)-6-(4-fluorophenoxy)-1H-benzimidazol-2-yl]methyl}-N-(2-hydroxy-2-methylpropyl)-L-alaninamide]: 90.1%. Next, `CCOCCn1c(CN[C@@H](C)C(=O)NCCOC)nc2ccc(Oc3ccc(F)cc3)cc21` [Example 88]: 83.5%; `CCOCCn1c(CN[C@@H](C)C(=O)NCCN2CCOCC2)nc2ccc(Oc3ccc(F)cc3)cc21` [Example 89]: 83%. For `CCOCCn1c(CN[C@@H](C)C(=O)N2CCOCC2)nc2ccc(Oc3ccc(F)cc3)cc21` [Example 90] the value was 96.1%; for `COCCn1c(CNC(C)(C)C(N)=O)nc2ccc(Oc3ccc(F)cc3)cc21` [Example 91, N^2-{[6-(4-fluorophenoxy)-1-(2-methoxyethyl)-1H-benzimidazol-2-yl]methyl}-2-methylalaninamide], 76.4%; for `CCOCCn1c(CN[C@@H](C)C(N)=O)nc2cc(Cl)c(-c3ccc(F)cc3)cc21` [Example 92, N^2-{[5-chloro-1-(2-ethoxyethyl)-6-(4-fluorophenyl)-1H-benzimidazol-2-yl]methyl}-L-alaninamide], 66.7%. For the compound `CCOCCn1c(CN[C@@H](C)C(N)=O)nc2ccc(Oc3ccc(F)cc3Cl)cc21` [Example 93], the inhibition at 12.5 µM came to 82.1%. With `CCOCCn1c(CN[C@@H](C)C(N)=O)nc2ccc(Oc3ccc(C(C)C)cc3)cc21` [Example 94], the inhibition at 12.5 µM worked out at 63.9%. For the compound `CCOCCn1c(CN[C@@H](C)C(N)=O)nc2ccc(Oc3ccc4c(c3)CCC4)cc21` [Example 95], the inhibition at 12.5 µM amounted to 26.8%. Next, `CCn1c(CN[C@@H](C)C(N)=O)nc2ccc(Oc3ccc(C)cc3)cc21` [Example 96]: 84.8%; `CCn1c(CN[C@@H](C)C(N)=O)nc2ccc(Oc3ccc(F)c(F)c3)cc21` [Example 97]: 82.4%; `CCn1c(CN[C@@H](C)C(N)=O)nc2ccc(Oc3ccc(F)cc3F)cc21` [Example 98]: 69.8%. Next, `C[C@H](NCc1nc2ccc(Oc3ccc(F)cc3F)cc2n1C1CC1)C(N)=O` [Example 99]: 65.4%; `C[C@H](NCc1nc2ccc(Oc3ccc(OC(F)(F)F)cc3)cc2n1C1CC1)C(N)=O` [Example 100]: 72.1%.

As to `Cc1ccc(Oc2ccc3nc(CN[C@@H](C)C(N)=O)n(CC(C)(C)O)c3c2)cc1` [Example 101], the inhibition at 12.5 µM turned out to be 85.2%. On to `CCOCCn1c(CN[C@@H](C)C(N)=O)nc2ccc(Oc3ccc(CC)cc3)cc21` [Example 102], for which the inhibition at 12.5 µM came to 96.3%. For `C[C@H](NCc1nc2ccc(Oc3ccc(OC(F)(F)F)cc3)cc2n1CC(C)(C)O)C(N)=O` [Example 103] the value was 87.9%; for `CCn1c(CN[C@@H](C)C(N)=O)nc2ccc(Oc3ccc(OC(F)(F)F)cc3)cc21` [Example 104], 83.6%. For `C[C@H](NCc1nc2ccc(Oc3ccc(F)cc3F)cc2n1CC(C)(C)O)C(N)=O` [Example 105] the value was 75.1%; for `CCOCCn1c(CN[C@@H](C)C(=O)N2CCNC(=O)C2)nc2ccc(Oc3ccc(F)cc3)cc21` [Example 106], 86.4%; for `CCOCCn1c(CN[C@@H](C)C(=O)N2CCNC(C#N)C2)nc2ccc(Oc3ccc(F)cc3)cc21` (some centres unmarked) [Example 107], 83.7%.

Turning to `CCOCCn1c(CN[C@@H](C)C(=O)N2CCNC(C(F)(F)F)C2)nc2ccc(Oc3ccc(F)cc3)cc21` (some centres unmarked) [Example 108], the inhibition at 12.5 µM came to 85.3%. On to `CCOCCn1c(CN[C@@H](C)C(N)=O)nc2cc(F)c(-c3ccc(F)cc3)cc21` [Example 109, N^2-{[1-(2-ethoxyethyl)-5-fluoro-6-(4-fluorophenyl)-1H-benzimidazol-2-yl]methyl}-L-alaninamide], for which the inhibition at 12.5 µM was determined as 89.3%.

For the compound `CCn1c(CN[C@@H](C)C(N)=O)nc2ccc(-c3ccc(F)cc3)cc21` [Example 110, N^2-{[1-ethyl-6-(4-fluorophenyl)-1H-benzimidazol-2-yl]methyl}-L-alaninamide], the inhibition at 12.5 µM was determined as 9.8%. Next, `CCn1c(CN[C@@H](C)C(N)=O)nc2cc(F)c(-c3ccc(F)cc3)cc21` [Example 111, N^2-{[1-ethyl-5-fluoro-6-(4-fluorophenyl)-1H-benzimidazol-2-yl]methyl}-L-alaninamide]: 88.4%; `CCOCCn1c(CN[C@@H](C)C(N)=O)nc2c(Cl)cc(-c3ccc(F)cc3)cc21` [Example 112, N^2-{[4-chloro-1-(2-ethoxyethyl)-6-(4-fluorophenyl)-1H-benzimidazol-2-yl]methyl}-L-alaninamide]: 0%; `CCOCCn1c(CN[C@@H](C)C(N)=O)nc2cc(C)c(-c3ccc(F)cc3)cc21` [Example 113, N^2-{[1-(2-ethoxyethyl)-6-(4-fluorophenyl)-5-methyl-1H-benzimidazol-2-yl]methyl}-L-alaninamide]: 64.7%. Next, `CCOCCn1c(CN[C@@H](C)C(N)=O)nc2c(F)cc(-c3ccc(F)cc3)cc21` [Example 114, N^2-{[1-(2-ethoxyethyl)-4-fluoro-6-(4-fluorophenyl)-1H-benzimidazol-2-yl]methyl}-L-alaninamide]: 6.5%.
